Molecules are shown by their SMILES. Non-standard residues stand in square brackets, D forms with d. Residues, ends and D or L forms follow the SMILES beside them. ξ: configuration not given here. *: point of attachment. X1 = NC(=O)[C@H]1OC(N*)[C@H](O)[C@@H](O)[C@@H]1O; ξAoc(2) = CCCCCCC(N)C(=O)O

The values that follow come from ChEMBL document CHEMBL1149580, “Caco-2 cell permeability and stability of two d-glucopyranuronamide conjugates of thyrotropin-releasing hormone” (Bioorg Med Chem, 2007).

The nature of data set [1]: Stability in Caco-2 cells assessed as half life. Format: ADME, cell-based, Colon. As to conditions: human.
Data set [2] can be described thus: Apparent permeability across human Caco-2 cells. Format: ADME, cell-based. A general note: Caco-2 monolayers are a common model of the intestinal barrier.
Data set [3] is described as follows: Stability in Caco-2 cells after 20 mins. Format: ADME, cell-based. To be noted: human, read-out: Stability.
Data set [4] can be described thus: Stability in Caco-2 cells after 2 hrs. As to conditions: human, read-out: Stability. It counts as ADME, cell-based.

`NC(=O)[C@@H]1CCCN1C(=O)[C@H](Cc1cnc[nH]1)NC(=O)[C@@H]1CCC(=O)N1` [PROTIRELIN]: the half-life in data set [1] amounted to 3 min. The apparent permeability coefficient (Papp) in data set [2] came out at 1.47 nm/s. Moreover, the remaining at 20 min in data set [3] is less than 5%.

Consider `OC[C@@H](O)[C@@H](O)[C@H](O)[C@H](O)CO` [MANNITOL], for which the apparent permeability coefficient (Papp) in data set [2] is 0.825 nm/s.

On to `NC(=O)[C@H]1OC(NC(=O)[C@@H]2CCCN2C(=O)[C@H](Cc2cnc[nH]2)NC(=O)[C@@H]2CCC(=O)N2)[C@H](O)[C@@H](O)[C@@H]1O` (stereo not given in full), for which the half-life in data set [1] is 20 min. For the same molecule, in data set [4], the remaining at 2 h came to 20%. In addition, in data set [2], the Papp turned out to be 51 nm/s.

On to `CCCCCCC(N)C(=O)N[C@@H](CCC(N)=O)C(=O)N[C@@H](Cc1cnc[nH]1)C(=O)N1CCC[C@H]1C(=O)NC1O[C@H](C(N)=O)[C@@H](O)[C@H](O)[C@H]1O` (stereo not given in full) (H-[ξAoc(2)]QHP-X1), for which the half-life in data set [1] amounted to 20 min. The remaining at 2 h in data set [4] came out at 20%. For the same molecule, the apparent permeability (Papp) in data set [2] worked out at 163 nm/s.

A word on the half-life: it is how long it takes for the measured level to halve. In general, Papp refers to a coefficient for how fast a substance crosses the barrier.
